Data taken from ChEMBL document CHEMBL1155525, “Substituted 2H-isoquinolin-1-one as potent Rho-Kinase inhibitors. Part 1: Hit-to-lead account” (Bioorg Med Chem Lett, 2010).
Converted amounts (≈) assume the structure as drawn.

Assays:
[1] = Solubility at pH 7.4; type: physicochemical; conditions: buffer
[2] = in vitro; conditions: human, liver microsomes
[3] = in vivo; conditions: rat
[4] = Oral bioavailability in rat at 10 mg/kg; type: ADME, organism-based; conditions: in vivo
[5] = in vivo; conditions: rat, iv, 1 mg/kg
[6] = in vivo; conditions: rat, plasma
[7] = in vitro; conditions: rat, liver microsomes

solubility [1] [µg/mL] | half-life [2] [min] | AUC [3] [ng·h/mL] | bioavailability [4] [%] | clearance [5] [mL/min/kg] | half-life [6] [min] | half-life [7] [min] | SMILES
> 60 |  |  |  |  |  |  | O=S(=O)(c1cccc2cnccc12)N1CCCNCC1 [FASUDIL]
> 32 | > 90 |  |  |  |  |  | C[C@@H](N)[C@H]1CC[C@H](C(=O)Nc2ccncc2)CC1.Cl.Cl
6 (≈ 16.9 µM) |  | 30 | 2 |  |  |  | CN(C)C(C(=O)Nc1cc2cc[nH]c(=O)c2cc1Cl)c1ccccc1 (stereo not drawn)
16 (≈ 43.5 µM) | 21 | 1290 | 64 | 82 | 162 | 7 | O=C(Nc1cc2cc[nH]c(=O)c2cc1Cl)C(NC1CC1)c1ccccc1 (stereo not drawn)
